In patent US20180177184A1, “ANTIMICROBIAL, INSECTICIDAL AND ACARICIDAL SYSTEM” (UNIVERSIDAD POLITECNICA DE VALENCIA, priority 2015, published 2018):

Tested on: Listeria innocua
Assay: Bacterial viability of Listeria innocua, 2 h incubation in tryptone soy broth, CFU counting
Type: cell-based
Details: L. innocua, about 10^6 CFU/ml, 37° C., concentration of vanillin
Description: To that end, in vitro assays were carried out to determine the bacterial viability of Listeria innocua compared to mesoporous particles functionalized with vanillin as well as free vanillin. […] To that end, different suspensions of particles or free vanillin in culture broth (tryptone soy broth) were prepared, and the microbial inoculum was added thereto to obtain an initial population of about 10^6 CFU/ml. Said suspensions were incubated under orbital stirring (150 rpm) at 37° C. for 2 h. After said period, the serial dilutions were seeded in selective medium and incubated for 48 h, with subsequent counting of the colony forming units (CFUs) and calculation of the percentage of inhibition.

COc1cc(C=O)ccc1O [free vanillin, vanillin]
concentration producing complete inhibition of the microorganism: 4 mg/mL
